From patent publication US20250099474A1 (priority 2022, published 2025)
Like-named read-outs stand apart in the source and are kept apart here.

Tested on: SARS-CoV-2
Assay type: in vivo, human
Settings: Phase 3 Part; for Time to resolution of five COVID-19 symptoms: Maximum value / Time to resolution of 12 COVID-19 symptoms: Maximum value / Time to resolution of 14 COVID-19 symptoms: Maximum value: +: includes censored data
Method: The primary endpoint of Phase 3 Part was the time to resolution of five COVID-19 symptoms in mild/moderate SARS-CoV-2-infected patients, and the efficacy was verified by evaluation of the five COVID-19 symptoms in four grades (0: none, 1: mild, 2: moderate, 3: severe) by the patients themselves.
The 750/250 mg group received 750 mg on Day 1 as a loading dose and 250 mg on Days 2 to 5 as a maintenance dose.
The primary efficacy endpoint of Phase 3 Part for mild/moderate SARS-CoV-2-infected patients was the time to resolution of the five COVID-19 symptoms.
Existing symptoms that existed before the onset of COVID-19 and were determined by the subject to be worsening at the baseline (pre-administration test) time point had to be improved […] from the severity at the baseline time point. • Severity at baseline was “severe”→“moderate”, “mild”, or “none” • Severity at baseline was “moderate”→“mild”, or “none” • Severity at baseline was “mild”→[…] “none” • Existing symptoms that existed before the onset of COVID-19 and were determined by the subject not to be worsening at the baseline (pre-administration test) time point had to be maintained or improved from the severity at the baseline time point. • Severity at baseline was “severe”->“severe”, “moderate”, “mild”, or “none” • Severity at baseline was “moderate”->“moderate”, “mild”, or “none” • Severity at baseline was “mild”→“mild”, or “none” • Regarding symptoms other than the above, that is, symptoms that were not present before the onset of COVID-19 and developed at or after the baseline (pre-administration test) time point, such symptoms had to be eliminated. • Severity at baseline was “severe”, “moderate”, or “mild”→“none”
As the key secondary analysis of the primary endpoint, the same analysis as the primary analysis was performed for the population of the mild/moderate SARS-CoV-2-infected patients in the ITT population.

[1] = ITT, onset to randomization less than 72 hours, 375/125 mg group
[2] = mild/moderate patients, ITT population, 375/125 mg group
[3] = mild/moderate patients, ITT population, 750/250 mg group
[4] = mild/moderate patients, ITT, onset to randomization less than 72 hours, 375/125 mg group
[5] = mild/moderate patients, ITT, onset to randomization less than 72 hours, 375/125 mg group, 336 cases analyzed
[6] = mild/moderate patients, ITT, onset to randomization less than 72 hours, 750/250 mg group
[7] = mild/moderate patients, ITT, onset to randomization less than 72 hours, 750/250 mg group, 330 cases analyzed

Cn1cnc(Cn2c(=O)[nH]/c(=N\c3cc4cn(C)nc4cc3Cl)n(Cc3cc(F)c(F)cc3F)c2=O)n1 [(6E)-6-[(6-chloro-2-methyl-2H-indazol-5-yl)imino]-3-[(1-methyl-1H-1,2,4-triazol-3-yl)methyl]-1-[(2,4,5-trifluorophenyl)methyl]-1,3,5-triazinane-2,4-dione]
Time to resolution of the five symptoms of COVID-19 shortened as the median value compared with placebo group by (ITT population, 375/125 mg group): 10.6 h
Time to resolution of 12 COVID-19 symptoms reduced compared to placebo group by a median of [1]: 34.0 h
Time to resolution of 14 COVID-19 symptoms reduced compared to placebo group by a median of [1]: 44.1 h
Time to resolution of the five COVID-19 symptoms shortened as the median compared with placebo group by [1]: 24.3 h
Time to resolution of the five symptoms of COVID-19, significance vs placebo (mild/moderate patients, ITT population): no significant difference was observed
Time to resolution of five COVID-19 symptoms: 25% point [2]: 104.3, — hour
Time to resolution of five COVID-19 symptoms: Difference of RMST (vs placebo) [2]: -5.6 h
Time to resolution of five COVID-19 symptoms: Difference of median value (vs placebo) [2]: -10.6 h
Time to resolution of five COVID-19 symptoms: Kaplan-Meier median value [2]: 189.7 h
Time to resolution of five COVID-19 symptoms: Minimum value [2]: 2.4 h
Time to resolution of five COVID-19 symptoms: Number of events (value in parentheses) [2]: (73.0)
Time to resolution of five COVID-19 symptoms: Restricted mean survival time during 21 days (RMST) [2]: 254.4 h
Time to resolution of five COVID-19 symptoms: Number of events (mild/moderate patients, ITT population, 375/125 mg group, 582 cases analyzed): 425
Time to resolution of five COVID-19 symptoms: Maximum value [2]: 493.3 h
Time to resolution of five COVID-19 symptoms: 25% point [3]: 99.2 h
Time to resolution of five COVID-19 symptoms: 75% point [3]: 434.8 h
Time to resolution of five COVID-19 symptoms: Difference of RMST (vs placebo) [3]: -14.9 h
Time to resolution of five COVID-19 symptoms: Difference of median value (vs placebo) [3]: -23.0 h
Time to resolution of five COVID-19 symptoms: Kaplan-Meier median value [3]: 177.3 h
Time to resolution of five COVID-19 symptoms: Minimum value [3]: 9.4 h
Time to resolution of five COVID-19 symptoms: Number of events (value in parentheses) [3]: (75.3)
Time to resolution of five COVID-19 symptoms: Restricted mean survival time during 21 days (RMST) [3]: 245.1 h
Time to resolution of five COVID-19 symptoms: Number of events (mild/moderate patients, ITT population, 750/250 mg group, 575 cases analyzed): 433
Time to resolution of five COVID-19 symptoms: Maximum value [3]: 493.1 h
Time to resolution of 12 COVID-19 symptoms: 25% point [4]: 105.6, — hour
Time to resolution of 12 COVID-19 symptoms: Difference of RMST (vs placebo) [4]: -16.9 h
Time to resolution of 12 COVID-19 symptoms: Difference of median value (vs placebo) [4]: -34.0 h
Time to resolution of 12 COVID-19 symptoms: Kaplan-Meier median value [4]: 179.2 h
Time to resolution of 12 COVID-19 symptoms: Minimum value [4]: 2.4 h
Time to resolution of 12 COVID-19 symptoms: Number of events (value in parentheses) [4]: (72.6)
Time to resolution of 12 COVID-19 symptoms: Restricted mean survival time during 21 days (RMST) [4]: 253.9 h
Time to resolution of 14 COVID-19 symptoms: 25% point [4]: 105.6, — hour
Time to resolution of 14 COVID-19 symptoms: Difference of RMST (vs placebo) [4]: -20.1 h
Time to resolution of 14 COVID-19 symptoms: Difference of median value (vs placebo) [4]: -44.1 h
Time to resolution of 14 COVID-19 symptoms: Kaplan-Meier median value [4]: 187.8 h
Time to resolution of 14 COVID-19 symptoms: Minimum value [4]: 2.4 h
Time to resolution of 14 COVID-19 symptoms: Number of events (value in parentheses) [4]: (71.7)
Time to resolution of 14 COVID-19 symptoms: Restricted mean survival time during 21 days (RMST) [4]: 257.9 h
Time to resolution of five COVID-19 symptoms: 25% point [4]: 99.5 h
Time to resolution of five COVID-19 symptoms: 75% point [4]: 424.8 h
Time to resolution of five COVID-19 symptoms: Difference of RMST (vs placebo) [4]: -19.4 h
Time to resolution of five COVID-19 symptoms: Difference of median value (vs placebo) [4]: -24.3 h
Time to resolution of five COVID-19 symptoms: Kaplan-Meier median value [4]: 167.9 h
Time to resolution of five COVID-19 symptoms: Minimum value [4]: 2.4 h
Time to resolution of five COVID-19 symptoms: Number of events (value in parentheses) [4]: (75.6)
Time to resolution of five COVID-19 symptoms: Restricted mean survival time during 21 days (RMST) [4]: 241.6 h
Time to resolution of 12 COVID-19 symptoms: Number of events [5]: 244
Time to resolution of 14 COVID-19 symptoms: Number of events [5]: 241
Time to resolution of five COVID-19 symptoms: Number of events [5]: 254
Time to resolution of 12 COVID-19 symptoms: Maximum value [4]: 489.1 h
Time to resolution of 14 COVID-19 symptoms: Maximum value [4]: 489.1 h
Time to resolution of five COVID-19 symptoms: Maximum value [4]: 489.1 h
Time to resolution of 12 COVID-19 symptoms: 25% point [6]: 114.2 h
Time to resolution of 12 COVID-19 symptoms: 75% point [6]: 422.7 h
Time to resolution of 12 COVID-19 symptoms: Difference of RMST (vs placebo) [6]: -20.8 h
Time to resolution of 12 COVID-19 symptoms: Difference of median value (vs placebo) [6]: -28.3 h
Time to resolution of 12 COVID-19 symptoms: Kaplan-Meier median value [6]: 184.9 h
Time to resolution of 12 COVID-19 symptoms: Minimum value [6]: 9.4 h
Time to resolution of 12 COVID-19 symptoms: Number of events (value in parentheses) [6]: (78.2)
Time to resolution of 12 COVID-19 symptoms: Restricted mean survival time during 21 days (RMST) [6]: 249.9 h
Time to resolution of 14 COVID-19 symptoms: 25% point [6]: 117.1 h
Time to resolution of 14 COVID-19 symptoms: 75% point [6]: 431.6 h
Time to resolution of 14 COVID-19 symptoms: Difference of RMST (vs placebo) [6]: -22.0 h
Time to resolution of 14 COVID-19 symptoms: Difference of median value (vs placebo) [6]: -41.5 h
Time to resolution of 14 COVID-19 symptoms: Kaplan-Meier median value [6]: 190.3 h
Time to resolution of 14 COVID-19 symptoms: Minimum value [6]: 9.4 h
Time to resolution of 14 COVID-19 symptoms: Number of events (value in parentheses) [6]: (77.3)
Time to resolution of 14 COVID-19 symptoms: Restricted mean survival time during 21 days (RMST) [6]: 256.0 h
Time to resolution of five COVID-19 symptoms: 25% point [6]: 96.7 h
Time to resolution of five COVID-19 symptoms: 75% point [6]: 360.9 h
Time to resolution of five COVID-19 symptoms: Difference of RMST (vs placebo) [6]: -26.1 h
Time to resolution of five COVID-19 symptoms: Difference of median value (vs placebo) [6]: -21.0 h
Time to resolution of five COVID-19 symptoms: Kaplan-Meier median value [6]: 171.2 h
Time to resolution of five COVID-19 symptoms: Minimum value [6]: 9.4 h
Time to resolution of five COVID-19 symptoms: Number of events (value in parentheses) [6]: (79.6)
Time to resolution of five COVID-19 symptoms: Restricted mean survival time during 21 days (RMST) [6]: 234.8 h
Time to resolution of five COVID-19 symptoms: Number of events (mild/moderate patients, ITT, onset to randomization less than 72 hours, 750/250 mg group, 329 cases analyzed): 262
Time to resolution of 12 COVID-19 symptoms: Number of events [7]: 258
Time to resolution of 14 COVID-19 symptoms: Number of events [7]: 255
Time to resolution of 12 COVID-19 symptoms: Maximum value [6]: 490.1 h
Time to resolution of 14 COVID-19 symptoms: Maximum value [6]: 490.1 h
Time to resolution of five COVID-19 symptoms: Maximum value [6]: 490.1 h
